# Experimental data from patent US20080193619A1, “Use of Fullerence C60 as an Oil Stabilizer” (UNI PHARMA HOLDING AS, priority 2005, published 2008).
# Experiments:
# [1] = In vivo experiments: toxicity, immunogenicity, allergenicity; conditions: dosages up to 25 mg/kg (0.0025% by weight) in aqueous solution
# [2] = Storage (shelf life) test of salmon oil stabilized with antioxidant, degree of oxidation in fatty acids; design: degree of oxidation in fatty acids: unit not given here; conditions: for degree of oxidation in fatty acids: fullerene C60 0.001%, rosemary 0.1%
# Method: FIG. 2. Shelf life tests for salmon oil stabilized with fullerene or rosemary. The results are given as the change in the oxidation level of fatty acids in the oil. The antioxidants rosemary and fullerene were present at 0.1% and 0.001% by weight, respectively.
# Research on storage of salmon oil was carried out at temperatures of 25° C. and 5° C. during the time period from Jun. 11, 2003 to Nov. 10, 2004 (17 months). The quality of the rosemary and fullerene C60 as antioxidants in salmon oil was studied in parallel during the entire duration of the experiment.
# The concentration of the two chosen antioxidants used in the experiment were obtained by an addition of 0.1% rosemary (the same concentration used in the products UNIC Omega-3 and AniMega) and 0.001% fullerene C60.
# Standard methods of defining the degree of oxidation in fatty acids were used during selected time periods during the storage test. FIG. 2. presents data from a storage temperature of 5° C.
# [3] = In vitro experiments: antioxidant activity
# [4] = test system: cellular membranes; experiment: In vitro experiments: cellular respiration and cellular membranes; assay type: cell-based
# [5] = Organoleptic testing (taste and smell) of stabilized salmon oil; conditions: salmon oil with the additive, organoleptic test
# Method: With basis in salmon oil as a nutritional supplement, organoleptic characteristics (determination of the quality of the oil by taste and smell) are also of importance. Standardized methods for organoleptic testing were utilized: one drop of salmon oil was placed on the arm and applied in a thin layer by means of a piece of glass. After one minute the quality of the oil could be determined by taste and smell. Five different individuals were tested, once per week, to obtain independent results. […] Both smell and taste was satisfactory at this point in time, and better for fullerene, witch kept well for 600 days, than for rosemary, witch only kept for 300 days.
# [6] = In vitro experiments: blood fibrillation
# [7] = In vitro experiments: cytotoxicity and hepatotoxicity; assay type: cell-based; conditions: concentrations up to 100 mM in water
# [8] = concentrations up to 100 mM in water
smiles,measurement,setting,value
c12c3c4c5c1c1c6c7c2c2c8c3c3c9c4c4c%10c5c5c1c1c6c6c%11c7c2c2c7c8c3c3c8c9c4c4c9c%10c5c5c1c1c6c6c%11c2c2c7c3c3c8c4c4c9c5c1c1c6c2c3c41 [fullerene C60],allergenicity in vivo,[1],"not toxic, immunogenic, or an allergen"
same,immunogenicity in vivo,[1],"not toxic, immunogenic"
same,toxicity in vivo,[1],not toxic
same,keeping time of stabilized fish oil,[2]; fish oil stabilized with the antioxidant,600 days
same,degree of oxidation in fatty acids,"[2]; salmon oil, 5 C., day 0 (11.06)",0.00036
same,degree of oxidation in fatty acids,"[2]; salmon oil, 5 C., day 14 (25.06)",0.00083
same,degree of oxidation in fatty acids,"[2]; salmon oil, 5 C., day 81 (8.09)",0.0010
same,degree of oxidation in fatty acids,"[2]; salmon oil, 5 C., day 95 (22.09)",0.00095
same,degree of oxidation in fatty acids,"[2]; salmon oil, 5 C., day 109 (6.10)",0.0014
same,degree of oxidation in fatty acids,"[2]; salmon oil, 5 C., day 123 (20.10)",0.0012
same,degree of oxidation in fatty acids,"[2]; salmon oil, 5 C., day 185 (21.12)",0.0023
same,degree of oxidation in fatty acids,"[2]; salmon oil, 5 C., day 200 (05.01)",0.0027
same,degree of oxidation in fatty acids,"[2]; salmon oil, 5 C., day 214 (19.01)",0.0028
same,degree of oxidation in fatty acids,"[2]; salmon oil, 5 C., day 228 (02.02)",0.0028
same,degree of oxidation in fatty acids,"[2]; salmon oil, 5 C., day 242 (16.02)",0.0030
same,degree of oxidation in fatty acids,"[2]; salmon oil, 5 C., day 256 (2.03)",0.0030
same,degree of oxidation in fatty acids,"[2]; salmon oil, 5 C., day 270 (16.03)",0.0031
same,degree of oxidation in fatty acids,"[2]; salmon oil, 5 C., day 284 (30.03)",0.0033
same,degree of oxidation in fatty acids,"[2]; salmon oil, 5 C., day 298 (13.04)",0.0037
same,degree of oxidation in fatty acids,"[2]; salmon oil, 5 C., day 312 (27.04)",0.0039
same,degree of oxidation in fatty acids,"[2]; salmon oil, 5 C., day 326 (11.05)",0.0040
same,degree of oxidation in fatty acids,"[2]; salmon oil, 5 C., day 340 (25.05)",0.0043
same,degree of oxidation in fatty acids,"[2]; salmon oil, 5 C., day 354 (8.06)",0.0046
same,degree of oxidation in fatty acids,"[2]; salmon oil, 5 C., day 368 (22.06)",0.0048
same,degree of oxidation in fatty acids,"[2]; salmon oil, 5 C., day 372 (06.07)",0.0050
same,degree of oxidation in fatty acids,"[2]; salmon oil, 5 C., day 386 (20.07)",0.0052
same,degree of oxidation in fatty acids,"[2]; salmon oil, 5 C., day 414 (15.08)",0.0054
same,degree of oxidation in fatty acids,"[2]; salmon oil, 5 C., day 428 (29.08)",0.0055
same,degree of oxidation in fatty acids,"[2]; salmon oil, 5 C., day 442 (12.09)",0.0058
same,degree of oxidation in fatty acids,"[2]; salmon oil, 5 C., day 456 (26.09)",0.0061
same,degree of oxidation in fatty acids,"[2]; salmon oil, 5 C., day 470 (10.10)",0.0065
same,degree of oxidation in fatty acids,"[2]; salmon oil, 5 C., day 484 (24.10)",0.0066
same,degree of oxidation in fatty acids,"[2]; salmon oil, 25 C., day 0 (11.06)",0.00036
same,degree of oxidation in fatty acids,"[2]; salmon oil, 25 C., day 14 (25.06)",0.00076
same,degree of oxidation in fatty acids,"[2]; salmon oil, 25 C., day 81 (8.09)",0.0020
same,degree of oxidation in fatty acids,"[2]; salmon oil, 25 C., day 95 (22.09)",0.0031
same,degree of oxidation in fatty acids,"[2]; salmon oil, 25 C., day 109 (6.10)",0.0090
same,degree of oxidation in fatty acids,"[2]; salmon oil, 25 C., day 123 (20.10)",0.0015
same,degree of oxidation in fatty acids,"[2]; salmon oil, 25 C., day 185 (21.12)",0.012
same,degree of oxidation in fatty acids,"[2]; salmon oil, 25 C., day 200 (05.01)",0.015
same,degree of oxidation in fatty acids,"[2]; salmon oil, 25 C., day 214 (19.01)",0.022
same,degree of oxidation in fatty acids,"[2]; salmon oil, 25 C., day 228 (02.02)",0.034
same,degree of oxidation in fatty acids,"[2]; salmon oil, 25 C., day 242 (16.02)",0.037
same,degree of oxidation in fatty acids,"[2]; salmon oil, 25 C., day 256 (2.03)",0.038
same,degree of oxidation in fatty acids,"[2]; salmon oil, 25 C., day 270 (16.03)",0.040
same,degree of oxidation in fatty acids,"[2]; salmon oil, 25 C., day 284 (30.03)",0.041
same,degree of oxidation in fatty acids,"[2]; salmon oil, 25 C., day 298 (13.04)",0.044
same,degree of oxidation in fatty acids,"[2]; salmon oil, 25 C., day 312 (27.04)",0.047
same,degree of oxidation in fatty acids,"[2]; salmon oil, 25 C., day 326 (11.05)",0.049
same,degree of oxidation in fatty acids,"[2]; salmon oil, 25 C., day 340 (25.05)",0.054
same,degree of oxidation in fatty acids,"[2]; salmon oil, 25 C., day 354 (8.06)",0.059
same,degree of oxidation in fatty acids,"[2]; salmon oil, 25 C., day 368 (22.06)",0.063
same,degree of oxidation in fatty acids,"[2]; salmon oil, 25 C., day 372 (06.07)",0.066
same,degree of oxidation in fatty acids,"[2]; salmon oil, 25 C., day 386 (20.07)",0.068
same,degree of oxidation in fatty acids,"[2]; salmon oil, 25 C., day 414 (15.08)",0.070
same,degree of oxidation in fatty acids,"[2]; salmon oil, 25 C., day 428 (29.08)",0.072
same,degree of oxidation in fatty acids,"[2]; salmon oil, 25 C., day 442 (12.09)",0.080
same,degree of oxidation in fatty acids,"[2]; salmon oil, 25 C., day 456 (26.09)",0.085
same,degree of oxidation in fatty acids,"[2]; salmon oil, 25 C., day 470 (10.10)",0.088
same,degree of oxidation in fatty acids,"[2]; salmon oil, 25 C., day 484 (24.10)",0.089
same,effectiveness as additive (antioxidant) compared with rosemary,"[2]; salmon oil, temperature of 5 C",more effective additive than rosemary
same,"antioxidant activity compared with ionol, vitamin E and beta-carotene",[3],"greater than ionol, vitamin E, and beta-carotene"
same,inhibition of cellular respiration,[4]; [8],does not inhibit cellular respiration
same,inhibition of membrane catalytic activity,[4]; [8],does not inhibit cellular respiration or inhibition of membrane catalytic activity
same,stabilization of cellular membranes,[4]; stability during unfavourable conditions,stabilizes cellular membranes
same,time the oil kept (smell and taste),[5],600 days
same,effect on blood fibrillation,[6],no bearing on blood fibrillation
same,cytotoxicity,[7],not cytotoxic
same,hepatotoxicity,[7],not cytotoxic or hepatoxic
